Laboratory results as given in paper PMC6977318, “In vitro and in situ study on characterization and mechanism of the intestinal absorption of 2,3,5,4′-tetrahydroxy-stilbene-2-O-β-D-glucoside” (BMC Pharmacology & Toxicology, 2020).

How the values were obtained:
[1] = In situ single-pass intestinal perfusion of TSG in rats (Ka, PA); format: in vivo, rat
Description: The proper amount of TSG was accurately weighed, and the intestinal circulation liquid with a concentration of 10, 30 and 60 μg·mL^− 1 was prepared by using a blank intestinal circulation solution.
24 SD rats, half male and half female, were fasted for 12 h but permitted to drink water freely before surgery. Rats were anesthetized by intraperitoneal injection of 25% urethane ([…]) and placed in a supine position on the operating table. The abdominal cavity was opened along the midline of the abdomen, then the incision was made at the duodenum and the ileum. The polyethylene tubes were carefully inserted at both sides of the segment and ligatured with a sterile surgical line. The contents of the intestines were slowly rinsed with 0.9% saline, prewarmed at 37 °C, and the residual liquid in the intestine was drained with air. Afterward, the wound in the abdomen of the rats was covered with a gauze soaked with 37 °C 0.9% saline buffer to moisturize after the operation, warmed with infrared lamp. The intestinal was equilibrated with a drug-containing perfusate (the concentration of TSG was 10, 30 and 60 μg·mL^− 1 respectively) which was preheated at 37 °C at a flow rate of 5 mL·min^− 1. Samples were collected in EP tubes after 10 min, and blank intestinal circulation solution (1 mL) was quickly added to circulatory solution. After that, the flow rate was adjusted to 2 mL·min^− 1, and the samples were taken at 10 min intervals for 4 h. In addition, in order to study the effects of different pH on intestinal absorption of TSG, the pH of the blank intestinal circulation solution was adjusted to 5.4 and 6.4, respectively. Finally, the experimental animals were euthanized by the method of rapid decapitation when the experiment was over. The procedures and precautions for sacrifice were the same as previously described.
(§1) 1 mL sample was mixed with equal amount of methanol, filtered through a membrane filter (0.45 μm pore size), and centrifuged at 12000 r·min^− 1 for 10 min. […] The mobile phase consisted of (A) 0.1% formic acid water and (B) acetonitrile. The gradient elution was set as: linear gradient elution 20–35% B (0-15 min) with a flow rate of 1 mL·min^− 1. The injected sample volume was 5 μL. TSG was detected at wavelength of 320 nm and phenol red was detected at wavelength of 430 nm. The concentration of phenol red was used to correct the volume of intestinal circulating fluid. The concentration of TSG and the volume of intestinal circulating fluid in each time period was used to calculate the residual drug amount (X). With the sampling time t as independent variable and lnX as dependent variable, the absorption rate constant Ka was determined from the slope of the straight line. The drug absorption percentage were calculated by the ratio of the change value of the remaining dose of t (h) to the amount of the remaining drug at time 0.
(§2) The absorption rate constants (Ka) and percentage of absorption (PA, %) were calculated using the following eqs. (3), (4), respectively.
(§3) Where X was the residual drug amount, C0 was the drug concentration of intestinal circulation liquid at 0 min, V0 was the drug volume of intestinal circulation liquid at 0 min, Ct was the drug concentration of intestinal circulation liquid at t min, Vt was the drug volume of intestinal circulation liquid at t min, t was the perfusion time.

P-gp = assay: Western blotting, expression of P-gp in Caco-2 cells after TSG; format: cell-based; details: TSG 10, 30 and 60 μg·mL^− 1, 4 h; significant at 60 μg·mL^− 1 (p < 0.05)
Description: (§4) When Caco-2 cells grew to 80–90%, the cell were treated with different concentrations (10, 30 and 60 μg·mL^− 1) of TSG and blank medium solution (blank control group). […] The concentration of total proteins was detected by BCA kit, and the supernatant were mix with SDS-PAGE sample buffer after protein quantification, denatured on a heater for 5 min and stored.
(§5) The total proteins were electrophoresed in 10% SDS-PAGE gel and then transferred to PVDF membranes by wet process to block with 5% skim milk for 2 h at room temperature. Membranes were incubated overnight with the following primary antibodies Anti-P glycoprotein antibody (1:2000), Anti-MRP2 antibody (1:500), and GAPDH polyclonal antibody. After that, the membranes were washed with 0.1% TBST for 3 times and 10 min each time and incubated with corresponding secondary antibody (1:5000) for 1 h at room temperature. The OD density values of bands were analyzed using gel imaging and analysis system.

MRP2 [2] = target: T1, MRP2 (Rattus norvegicus, UniProt Q63120); assay: Effect of MRP2 inhibitor on intestinal absorption of TSG, in situ perfusion; format: in vivo
T1 construct: from tissue; host or cells: rat small intestine, perfused in situ
T1 sequence (Q63120 whole entry, the tested form may be a part): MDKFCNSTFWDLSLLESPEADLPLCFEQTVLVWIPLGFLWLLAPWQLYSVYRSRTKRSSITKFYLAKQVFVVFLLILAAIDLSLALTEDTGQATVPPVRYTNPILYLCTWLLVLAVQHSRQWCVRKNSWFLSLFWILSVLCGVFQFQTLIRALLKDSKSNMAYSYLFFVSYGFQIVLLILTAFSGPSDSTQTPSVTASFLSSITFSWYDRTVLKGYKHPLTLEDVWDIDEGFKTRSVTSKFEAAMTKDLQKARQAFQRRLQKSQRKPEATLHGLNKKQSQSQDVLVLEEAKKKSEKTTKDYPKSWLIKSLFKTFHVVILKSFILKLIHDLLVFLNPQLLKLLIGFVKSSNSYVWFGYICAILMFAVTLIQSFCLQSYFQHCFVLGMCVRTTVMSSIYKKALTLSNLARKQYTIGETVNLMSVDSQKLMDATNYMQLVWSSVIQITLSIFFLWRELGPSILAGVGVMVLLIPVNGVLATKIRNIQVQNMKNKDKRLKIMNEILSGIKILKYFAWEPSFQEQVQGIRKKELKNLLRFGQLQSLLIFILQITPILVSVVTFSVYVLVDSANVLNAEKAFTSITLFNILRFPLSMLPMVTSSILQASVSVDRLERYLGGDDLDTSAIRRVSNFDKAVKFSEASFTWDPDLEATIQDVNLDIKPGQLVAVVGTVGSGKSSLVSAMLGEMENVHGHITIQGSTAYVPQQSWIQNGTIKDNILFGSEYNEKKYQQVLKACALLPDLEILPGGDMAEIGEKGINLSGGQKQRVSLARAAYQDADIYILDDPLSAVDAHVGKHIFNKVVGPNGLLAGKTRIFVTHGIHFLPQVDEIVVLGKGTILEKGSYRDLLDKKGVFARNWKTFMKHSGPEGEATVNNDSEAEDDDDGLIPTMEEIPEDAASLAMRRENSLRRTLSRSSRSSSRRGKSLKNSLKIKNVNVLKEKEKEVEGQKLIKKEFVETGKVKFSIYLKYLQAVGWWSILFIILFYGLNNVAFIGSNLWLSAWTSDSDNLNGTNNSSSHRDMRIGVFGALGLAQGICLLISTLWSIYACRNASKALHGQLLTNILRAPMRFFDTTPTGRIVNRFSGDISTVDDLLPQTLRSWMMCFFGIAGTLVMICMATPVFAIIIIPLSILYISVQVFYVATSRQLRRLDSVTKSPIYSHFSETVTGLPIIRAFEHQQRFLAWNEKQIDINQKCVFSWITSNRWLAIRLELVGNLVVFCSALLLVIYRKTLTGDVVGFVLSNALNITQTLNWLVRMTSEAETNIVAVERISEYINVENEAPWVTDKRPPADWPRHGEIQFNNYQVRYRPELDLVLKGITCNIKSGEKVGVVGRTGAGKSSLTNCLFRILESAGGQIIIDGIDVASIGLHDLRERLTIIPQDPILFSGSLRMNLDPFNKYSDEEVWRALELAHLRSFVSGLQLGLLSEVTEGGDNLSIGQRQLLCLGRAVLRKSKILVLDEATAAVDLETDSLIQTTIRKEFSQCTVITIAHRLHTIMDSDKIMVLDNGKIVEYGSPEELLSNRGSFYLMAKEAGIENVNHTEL
Description: The perfusion was started with inhibitor solution at a flow rate of 2 mL·min^− 1, and after 30 min, it was replaced with TSG solution to investigate the influences of efflux proteins on TSG.
as §1, §2, §3

[3] = set-up: method as in PMID 23371758; details: rats plasma, two-compartment model; cited from earlier work
[4] = In situ gastric perfusion of TSG in rats; format: in vivo; details: rat
Description: According to the Chinese Pharmacopoeia, the artificial gastric juice without pepsin is configured under the time limit inspection method of disintegration.
The appropriate amount of TSG was accurately weighed, and the gastric perfusate was prepared at a concentration of 10, 30 and 60 μg·mL^− 1 using artificial gastric juice.
24 SD rats, half male and half female, were fasted for 12 h but permitted to drink water freely before surgery. Rats were anesthetized by intraperitoneal injection of 25% urethane ([…]) and placed in a supine position on the operating table. The abdominal cavity was opened along the midline of the abdomen, then the incision was made at the duodenum and the ileum. The polyethylene tubes were carefully inserted at both sides of the segment and ligatured with a sterile surgical line. […]
1 mL sample was mixed with equal amount of methanol, filtered through a membrane filter (0.45 μm pore size), and centrifuged at 12000 r·min^− 1 for 10 min. […] TSG was detected at wavelength of 320 nm and phenol red was detected at wavelength of 430 nm. […] With the sampling time t as independent variable and lnX as dependent variable, the absorption rate constant Ka was determined from the slope of the straight line. The drug absorption percentage were calculated by the ratio of the change value of the remaining dose of t (h) to the amount of the remaining drug at time 0.

[5] = MTT cytotoxicity of TSG for Caco-2 cells; format: cell-based; details: human; Caco-2 cells, 60 μg·mL^− 1 TSG, 5 h, MTT; read-out: cell viability
Description: (§6) MTT assay was firstly used to investigate the effect of TSG with different concentrations on Caco-2 cells vitality. Briefly, Caco-2 cells were seeded in 96-wells plates at a density of 1 × 10^4 cells per well and placed in a 5% carbon dioxide incubator. After 48 h incubation, the cells were treated with increasing concentrations of TSG (0.75–240 μg·mL^− 1) and DMEM (containing 1%FBS) as a negative control. After 5 h of incubation, 20 μL of 5 mg·mL^− 1 MTT was added to each well, and the plate was incubated at 37 °C for 4 h. Then 150 μL of DMSO was added to each well after the supernatant was discarded. Absorbance was measured at a wavelength of 570 nm.

Caco-2 cells = assay: MTT cytotoxicity of TSG for Caco-2 cells; format: cell-based
Description: as §6

Caco-2 cell monolayer = assay: Bidirectional transport across Caco-2 cell monolayer (Papp); format: in vitro ADME
Description: Then, the supernatant was analyzed by HPLC. […] The injected sample volume was 5 μL. TSG was detected at wavelength of 320 nm.
(§7) (1): 1 Papp=dQ/dt×1/A×1/C0

MRP2 [6] = assay: Western blotting, expression of MRP2 in Caco-2 cells after TSG; format: cell-based; details: TSG 10, 30 and 60 μg·mL^− 1, 4 h; significant at 30 and 60 μg·mL^− 1 (p < 0.05)
Description: as §4, §5

MRP2 [7] = assay: Effect of MRP2 inhibitor on TSG transport across Caco-2 cell monolayer; format: in vitro ADME
Description: The effect of efflux protein inhibitors on the intestinal absorption of TSG was studied based on Caco-2 cell monolayer model. […] Before the administration, the inhibitor was added to AP side and BL side, and the plate was placed in an incubator. After 30 min, the inhibitor solution was replaced with TSG solution at concentration of 30 μg·mL^− 1 to inspect the effect of efflux proteins on TSG.
Then, the supernatant was analyzed by HPLC. HPLC separation was performed on Eclipse Plus C18 column (4.6 mm × 250 mm, 5 μm) at 30 °C. The mobile phase consisted of acetonitrile and 0.1% formic acid water (25:75) and the velocity of flow is 1 mL·min^− 1. The injected sample volume was 5 μL. TSG was detected at wavelength of 320 nm.
as §7

[8] = inhibitor 5 μg·mL^− 1, TSG 30 μg·mL^− 1, compared with TSG alone
[9] = inhibitor 25 μg·mL^− 1, TSG 30 μg·mL^− 1, compared with TSG alone
[10] = inhibitor 25 μg·mL^− 1, p < 0.05, rat

Structure (SMILES): OC[C@H]1O[C@@H](Oc2c(O)cc(O)cc2/C=C/c2ccc(O)cc2)[C@H](O)[C@@H](O)[C@@H]1O [TSG, 2,3,5,4′-tetrahydroxystilbene-2-O-β-D-glucoside]
- absorption rate in the intestine ([1]; in situ perfusion, rat): lower than 20%
- Ka between pH 6.4 and 7.4 ([1]; rat intestinal perfusion, p < 0.01): significant increase
- PA value of pH 7.4 versus pH 6.4 and 5.4 ([1]; rat intestinal perfusion, p < 0.05): significantly different
- absorption rate constant (Ka) at 10 μg·mL^− 1 versus 30 and 60 μg·mL^− 1 ([1]; rat small intestine, p < 0.05): significantly greater
- percentage of absorption (PA) at 10 μg·mL^− 1 versus 30 and 60 μg·mL^− 1 ([1]; rat small intestine, p < 0.05): significantly greater
- expression of P-gp in Caco-2 cells (P-gp): increased with concentration
- substrate of efflux protein MRP2 (MRP2 [2]; conclusion from in situ transport data): may be the substrate
- absorption half-life (t1/2Ka) [3]: 14.80 min
- maximal concentration (Cmax) [3]: 5.70 μg·mL^− 1
- absorption in stomach ([4]; TSG 10, 30 and 60 μg·mL^− 1): well absorbed
- absorption in stomach versus concentration ([4]; TSG 10, 30 and 60 μg·mL^− 1, p < 0.05): increased significantly with concentration
- viability at 5 h, 60 μg·mL^-1 [5]: > 90%
- cell viability (Caco-2 cells; Caco-2 cells, TSG more than 60 μg·mL^− 1, MTT): significantly decreased
- toxicity on Caco-2 cells (Caco-2 cells; TSG 0.75–60 μg·mL^− 1, MTT): basically no toxicity
- bilateral (AP-BL and BL-AP) Papp versus concentration (Caco-2 cell monolayer; 10, 30 and 60 μg·mL^− 1): decreased substantially with increasing concentration
- absorption class from Papp (Caco-2 cell monolayer; Caco-2 cell monolayer): moderately absorbed drug
- Papp values of bidirectional transport versus pH (Caco-2 cell monolayer; TSG 30 μg·mL^− 1, pH 7.4, 6.4, 5.4): increased significantly with the decrease of pH value
- time at which bilateral Papp values reached the maximum (Caco-2 cell monolayer; after administration, 10, 30 and 60 μg·mL^− 1): 1 h
- expression of MRP2 in cells (MRP2 [6]): decreased

Structure (SMILES): CCCN(CCC)S(=O)(=O)c1ccc(C(=O)O)cc1 [probenecid]
- increase of Papp values of TSG, AP-BL side (MRP2 [7]; [8]): ~2.22 times
- increase of Papp values of TSG, BL-AP side (MRP2 [7]; [8]): ~1.82 times
- increase of Papp values of TSG, AP-BL side (MRP2 [7]; [9]): ~3.02 times
- increase of Papp values of TSG, BL-AP side (MRP2 [7]; [9]): ~1.91 times
- Ka values of TSG in presence of inhibitor (MRP2 [2]; [10]): significantly enhanced
- PA values of TSG in presence of inhibitor (MRP2 [2]; [10]): significantly enhanced
